Data published in paper PMC6369001 (European journal of medicinal chemistry, 2019).
Counter-ions that a name gives are not always drawn.

Legend:
[1] = test system: effects of cocaine; conditions: cited from earlier work; for Effects against cocaine in behavioral models: rodents, ref 32 (compound 1), ref 34 (compound 2)
[2] = test system: effects of methamphetamine; conditions: mice; ref 33 (compound 1), ref 35 (compound 2, pretreatment); cited from earlier work
[3] = target: norepinephrine transporters (Rattus norvegicus, UniProt Q63380); assay: Norepinephrine transporter binding
norepinephrine transporters, sequence (Q63380 1-617): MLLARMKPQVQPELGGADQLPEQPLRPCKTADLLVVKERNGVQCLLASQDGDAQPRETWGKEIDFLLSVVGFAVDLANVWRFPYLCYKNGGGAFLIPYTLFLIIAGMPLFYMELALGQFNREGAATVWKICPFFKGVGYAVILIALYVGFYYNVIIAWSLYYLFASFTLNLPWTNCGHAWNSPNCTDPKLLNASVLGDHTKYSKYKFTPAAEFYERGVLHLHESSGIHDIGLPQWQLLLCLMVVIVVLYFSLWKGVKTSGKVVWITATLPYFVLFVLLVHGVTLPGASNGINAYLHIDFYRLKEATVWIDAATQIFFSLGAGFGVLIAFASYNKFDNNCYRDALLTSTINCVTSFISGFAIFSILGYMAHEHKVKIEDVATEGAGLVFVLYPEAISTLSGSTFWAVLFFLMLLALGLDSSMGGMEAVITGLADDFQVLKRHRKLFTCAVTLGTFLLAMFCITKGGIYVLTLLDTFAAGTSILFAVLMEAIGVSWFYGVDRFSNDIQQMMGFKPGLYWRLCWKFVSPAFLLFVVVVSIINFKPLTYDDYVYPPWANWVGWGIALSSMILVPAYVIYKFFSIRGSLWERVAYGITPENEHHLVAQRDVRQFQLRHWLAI

[4] = target: T1, σ2R (Rattus norvegicus, UniProt Q5U3Y7); assay: σ2R radioligand competition binding; conditions: selectivity ratio σ1R over σ2R
T1 sequence (Q5U3Y7 1-176): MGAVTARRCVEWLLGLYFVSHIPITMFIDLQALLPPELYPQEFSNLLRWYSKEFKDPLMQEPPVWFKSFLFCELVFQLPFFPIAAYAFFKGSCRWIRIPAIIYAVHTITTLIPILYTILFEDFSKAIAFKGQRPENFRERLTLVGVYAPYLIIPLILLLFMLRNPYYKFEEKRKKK

[5] = test system: cocaine-induced convulsions; assay: In vivo cocaine-induced convulsion studies; conditions: mice, 10 mg/kg i.p. pretreatment; P<0.005 vs vehicle, Fisher's exact test
[6] = target: serotonin transporters (Rattus norvegicus, UniProt P31652); assay: Serotonin transporter binding; conditions: ratio of Ki serotonin transporter to Ki σ2R
serotonin transporters, sequence (P31652 whole entry): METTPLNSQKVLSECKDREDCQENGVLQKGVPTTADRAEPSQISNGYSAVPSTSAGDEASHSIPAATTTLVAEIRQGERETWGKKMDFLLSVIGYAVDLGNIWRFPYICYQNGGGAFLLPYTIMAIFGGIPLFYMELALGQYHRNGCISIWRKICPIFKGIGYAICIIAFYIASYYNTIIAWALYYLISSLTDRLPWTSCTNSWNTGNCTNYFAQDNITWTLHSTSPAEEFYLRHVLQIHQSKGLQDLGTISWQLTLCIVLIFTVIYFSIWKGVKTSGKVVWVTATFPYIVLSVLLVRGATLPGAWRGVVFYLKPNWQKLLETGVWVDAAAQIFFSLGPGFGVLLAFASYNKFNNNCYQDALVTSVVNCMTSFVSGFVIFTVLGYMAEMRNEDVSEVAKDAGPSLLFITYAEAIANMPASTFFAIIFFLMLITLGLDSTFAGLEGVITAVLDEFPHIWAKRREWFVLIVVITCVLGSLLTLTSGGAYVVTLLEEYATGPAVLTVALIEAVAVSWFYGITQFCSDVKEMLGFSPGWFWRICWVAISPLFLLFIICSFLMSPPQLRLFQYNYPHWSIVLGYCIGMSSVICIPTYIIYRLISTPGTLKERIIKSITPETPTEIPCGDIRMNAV

[7] = target: Serotonin (5-HT2) receptors (Rattus norvegicus, UniProt P14842); assay: Serotonin; assay type: binding; conditions: ratio of Ki 5-HT2 to Ki σ2R
Serotonin (5-HT2) receptors, sequence (P14842 whole entry): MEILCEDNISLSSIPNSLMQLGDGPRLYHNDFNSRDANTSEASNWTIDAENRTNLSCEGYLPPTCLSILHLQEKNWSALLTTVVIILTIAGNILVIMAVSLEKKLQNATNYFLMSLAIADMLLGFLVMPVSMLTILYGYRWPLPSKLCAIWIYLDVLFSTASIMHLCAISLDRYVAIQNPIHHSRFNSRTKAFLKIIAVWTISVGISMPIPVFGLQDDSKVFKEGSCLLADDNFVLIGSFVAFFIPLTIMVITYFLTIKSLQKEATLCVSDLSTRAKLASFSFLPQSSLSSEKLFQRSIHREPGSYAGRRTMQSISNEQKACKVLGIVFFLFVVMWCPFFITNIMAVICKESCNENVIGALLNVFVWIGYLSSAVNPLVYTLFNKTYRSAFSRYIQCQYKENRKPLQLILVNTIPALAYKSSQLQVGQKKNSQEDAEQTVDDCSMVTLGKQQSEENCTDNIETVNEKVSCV

S=c1sc2ccccc2n1CCCCN1CCN(C2CCCCC2)CC1 [Compound 1, 3-[4-(4-cyclohexylpiperazin-1-yl)butyl]-2(3H)-benzothiazolethione]
Effects against cocaine in behavioral models [1]: produced both acute and subchronic effects against cocaine
Effects against methamphetamine [2]: mitigate the effects of methamphetamine

CC(=O)c1ccc2c(c1)oc(=O)n2CCCCN1CCN(c2ccc(F)cc2)CC1 [Compound 2, 6-acetyl-3-{4-[4-(4-fluorophenyl)piperazin-1-yl]butyl}-2(3H)-benzoxazolone]
Sedation and incoordination ([1]; acute treatment): caused sedation and incoordination
Effects against cocaine in behavioral models [1]: reduced the toxic and stimulant effects of cocaine
Effects against methamphetamine [2]: afforded protection against methamphetamine-induced hyperthermia, and striatal dopaminergic and serotonergic neurotoxicity

CCCn1c(=O)n(CCCCN2CCN(c3ccc(F)cc3)CC2)c2ccccc21 [Compound 14]
Ki [3]: > 10 µM
Ki σ1/ Ki σ2 [4]: > 1000
Protective effect against cocaine-induced convulsions, statistical significance [5]: statistically significant

CCCCCn1c(=O)n(CCCCN2CCN(c3ccc(F)cc3)CC2)c2ccccc21 [Compound 15, 1-{4-[4-(4-fluorophenyl)piperazin-1-yl]butyl}-3-pentyl-1,3-dihydrobenzimidazol-2-one dihydrochloride]
5-HTT/σ2R selectivity for σ2Rs [6]: 104 fold
Ki [3]: > 10 µM
5-HT2/σ2R preference for σ2Rs [7]: 58 fold
